Reference: patent US9220680B2, “Compositions and methods for localized drug delivery through mammary papillae” (South Dakota State University, priority 2012, dated 2015)
Entries after “also recorded” stand apart in the source; their conditions may differ. Like-named read-outs stand apart in the source and are kept apart here.

Key:
[1] = Permeation across human breast skin (Experiments 16-18); format: in vitro ADME; settings: human breast skin, value (SEM)
Excerpt: Mammary papillae and skin tissues were thawed. Keratin plugs were removed from the mammary papilla tissues using swabs with ethanol. […] The drug solutions were spiked with radioactive substances. […] Receptor medium was PBS with 7.4 pH. […] Results may be seen in FIG. 41 and Table 20.
Mammary papillae and skin tissues were thawed. Keratin plugs were removed from the mammary papilla tissues using swabs with ethanol. […] The drug solutions were spiked with radioactive substances. […] Receptor medium was PBS with 7.4 pH. […] Results may be seen in FIG. 42 and Table 22. […]

[2] = cited from earlier work
[3] = Permeation across human mammary areola vs human breast skin (Experiments 19-21); settings: cadaver tissue; donor in 50:50 ethanol:water; 48 hours
Method: (§1) Mammary areolae and skin tissues were procured from a cadaver (Pacific Islander). […] The drug solutions were spiked with radioactive substances. Now 500 μl of the formulation was placed in the donor. Receptor medium was PBS with 7.4 pH. Three […] samples of donor were taken to determine DPM of donors. 200 μl samples were taken from the receptor at pre-determined time points. […] Results may be seen in FIG. 44.
as §1, with “45.” for “44.”
as §1, with “46.” for “44.”

[4] = Transmammary permeation across human mammary papilla with and without removal of the keratin plug (Experiments 12-18); format: in vitro ADME; settings: for lag time / cumulative amount permeated / Drug retention in tissue / Flux: value (SEM); for cumulative amount permeated: 48 hours; for Drug retention in tissue: end of 48 hours
Excerpt: Mammary papillae tissues were thawed. […] The drug solutions were spiked with radioactive substances. […] Receptor medium was PBS with 7.4 pH. […] Results may be seen in FIG. 37 and Table 13.
Mammary papillae tissues were thawed. […] The drug solutions were spiked with radioactive substances. […] Receptor medium was PBS with 7.4 pH. […] Results may be seen in FIG. 38 and Table 15.
Mammary papillae tissues were thawed. […] The drug solutions were spiked with radioactive substances. […] Receptor medium was PBS with 7.4 pH. […] Results may be seen in FIG. 39 and Table 17.
Mammary papillae tissues were thawed. […] The drug solutions were spiked with radioactive substances. […] Receptor medium was PBS with 7.4 pH. […] Results may be seen in FIG. 40.
Mammary papillae and skin tissues were thawed. […] The drug solutions were spiked with radioactive substances. […] Receptor medium was PBS with 7.4 pH. […] Results may be seen in FIG. 41 and Table 20.
Mammary papillae and skin tissues were thawed. […] The drug solutions were spiked with radioactive substances. […] Receptor medium was PBS with 7.4 pH. […] Results may be seen in FIG. 42 and Table 22.
Mammary papillae tissues were thawed. […] The drug solutions were spiked with radioactive substances. […] Receptor medium was PBS with 7.4 pH. […] Results may be seen in FIG. 43 and Table 24.

[5] = rat
[6] = In vitro penetration and permeation via excised porcine mammary papilla, Franz diffusion cell (Example 1); format: in vitro ADME
Method: Drug penetration and permeation via mammary papillae was performed in a Franz diffusion cell using excised porcine mammary papilla. […] The transport studies were performed at time points for 6 and 48 hours.
In a separate study to evaluate the drug retention and disposition, the treatment was removed after 6 hours and the study was continued until the 48 hour mark. Samples were withdrawn from the receptor compartment at different time points. At the end of study, the mammary papilla was cut to 2 mm thick cylindrical sections from the top to the base of the tissue and was digested using a tissue solubilizer. The drug concentrations were determined by liquid scintillation counting.
Methods for the preparation of porcine mammary papilla. Freshly excised strips of porcine mammary papilla (6-7 months old animals) were washed with deionized water followed by removal of subcutaneous fatty tissue using a scalpel. Keeping the mammary papilla in the center, 3 cm×3 cm sized specimens of the tissue were excised, subcutaneous fat tissue was removed, and the tissue was frozen at −20° C. until used for the drug penetration and permeation studies.
Breast tissue was mounted between the two compartments of a vertical Franz diffusion cell (FDC) with breast tissue sandwiched between donor and receptor compartments. A mammary papilla was set in upright position inside the donor compartment of Franz diffusion cell. […] Samples were withdrawn from the receptor at different time points for 48 hours to determine drug concentration by radioactive count. At the end of 48 hours, tissue samples were taken for drug content determination. […]
In a second study, the mammary papillae in Franz diffusion cells were treated with the drugs for 48 hours and the permeation was followed through 48 hours. This analysis provided information regarding any saturation from drug treatment for extended periods of time. […]
Extraction of drugs from the mammary papilla. At the end of permeation study, the mammary papilla was removed from Franz diffusion cell and thoroughly washed with deionized water and blotted dried. Approximately 2 mm thick sections of the tissue were taken using a scalpel. These sections were homogenized, the drug was extracted, and the drug concentration was determined by radioactive counts.

[7] = 5FU 20 mg/ml, human mammary papilla with keratin plug removal
[8] = 5FU 20 mg/ml, human mammary papilla without keratin plug removal
[9] = excised porcine mammary papilla, saturated solution in ethanol:water (50:50), 48 h, mean ± SEM, n=3
[10] = porcine mammary papilla, end of 48 h, mean ± SEM, n=3

Structure (SMILES): O=c1[nH]cc(F)c(=O)[nH]1 [5FU, 5-fluorouracil]
- lag time ([1]; 5FU 20 mg/ml in 1:1 ethanol:water): 3.64 (0.37) hours
- cumulative amount permeated ([1]; 5FU 20 mg/ml, 48 hours): 2.69 (0.22) μmole
- Drug retention in tissue ([1]; 5FU 20 mg/ml, end of 48 hours): 9.56 (1.11) umole/g of tissue
- Flux ([1]; 5FU 20 mg/ml): 0.08 (0.01) μmole/cm^2/hour
- Log P [2]: −0.89
- Permeability across human mammary areola compared with human breast skin [3]: lower than that across human breast skin
- lag time ([4]; 5FU 20 mg/ml in 50:50 ethanol:water, human mammary papilla with keratin plug removal, n=3-4): 8.76 (1.46) hours
- cumulative amount permeated [4, 7]: 5.06 (1.17) μmole
- Drug retention in tissue [4, 7]: 7.30 (2.81) umole/g of tissue
- Flux [4, 7]: 0.18 (0.05) μmole/cm^2/hour
- cumulative amount permeated [4, 8]: 0.71 (0.08) μmole
- Drug retention in tissue [4, 8]: 2.28 (0.04) umole/g of tissue
- Flux [4, 8]: 0.03 (0.00) μmole/cm^2/hour
- lag time [4, 8]: 17.96 (3.80) hours
- Permeation profile via human vs porcine mammary papillae ([4]; after keratin plug removal, 48 hours (Experiment 15)): similar
- Increase in permeation across the tissues upon removal of the keratin plugs ([4]; human mammary papilla): more than 7 fold
- Profile of 5FU in plasma ([5]; intravenous injection): quickly eliminating from the blood
- Retention of 5FU in mammary papilla ([5]; intravenous injection, 30 minutes): some accumulation of 5FU into the mammary papilla
- 5FU retention into the vital organs (kidneys, heart, liver, lungs, spleen and brain) ([5]; topical application (transmammary and transdermal) vs intravenous injection): several folds lower than that after intravenous injection
- 5FU in blood / plasma ([5]; topical delivery (transmammary and transdermal), 6 h): no amount of 5FU was observed into the blood; also recorded: below the level of detection
- Retention of 5FU in mammary papilla ([5]; transdermal treatment, 6 h): no 5FU was observed into the mammary papilla
- Amount of 5FU in mammary gland ([5]; transmammary treatment 250 μl of 10 mg/ml for 6 h, compared with intravenous and transdermal): highest amount of 5FU in mammary gland
- Retention of 5FU in mammary papilla ([5]; transmammary treatment, 6 h): significant retention of 5FU into the mammary papilla
- Lag time ([6]; excised porcine mammary papilla, Franz diffusion cell, saturated solution in ethanol:water (50:50), 48 h, mean ± SEM, n=3): 8.18 ± 0.79 h
- Cumulative % permeated [6, 9]: 5.71 ± 0.06%
- Flux × 10^3 [6, 9]: 38.46 ± 2.38 μM · cm^2 · hr^−1
- Permeability coefficient × 10^3 [6, 9]: 0.25 ± 0.015 cm^2 · hr^−1
- cumulative amount permeated [6, 9]: 4.38 ± 0.04 µM
- Cumulative % retained [6, 10]: 4.94 ± 0.74%
- Cumulative amount retained [6, 10]: 3.80 ± 0.56 µM
- Drug extraction from 2 mm thick mammary papilla sections, Section A (tip) [6, 10]: 13.47 ± 1.35 µM/g
- Drug extraction from 2 mm thick mammary papilla sections, Section B [6, 10]: 11.78 ± 1.69 µM/g
- Drug extraction from 2 mm thick mammary papilla sections, Section C [6, 10]: 9.80 ± 1.44 µM/g
- Drug extraction from 2 mm thick mammary papilla sections, Section D (base) [6, 10]: 5.84 ± 1.69 µM/g
- Permeation across mammary papilla (in words) ([6]; porcine mammary papilla, treatment up to 48 hours): significant amount of 5FU passes through the mammary papilla
